# Test results published in PMC8869984, “Multifunctional Silver(I) Complexes with Metronidazole Drug Reveal Antimicrobial Properties and Antitumor Activity against Human Hepatoma and Colorectal Adenocarcinoma Cells” (Cancers, 2022).
# pIC50: −log10 of the molar value.
# Assays:
# [1] = test system: HepG2 cells; assay: LDH leakage assay (membrane integrity), 72 h exposure; assay type: cell-based, human; details: mean ± SD, n = 3
# Procedure: (§1) The human hepatoma (HepG2) and colorectal adenocarcinoma (Caco-2) cells were purchased from the American Type Culture Collection: ATCC HB-8065 and ATCC HTB-37, respectively. These cells were cultured in Minimum Essential Medium Eagle (MEME) (ATCC). The murine fibroblasts cell line (Balb/c 3T3 clone A31) (gift from the Department of Swine Diseases of the National Veterinary Research Institute in Pulawy) was cultured in Dulbecco’s Modified Eagle Medium (DMEM) (ATCC). The media were supplemented with 10% BCS (Balb/c 3T3), 10% FBS (HepG2), 20% FBS (Caco-2), 1% L-glutamine, 1% antibiotic solution. The cells were maintained in 75 cm^2 cell culture flasks (NUNC) in a humidified incubator at 37 °C in an atmosphere of 5% CO2. The medium was refreshed every two or three days, and the cells were trypsinized by 0.25% trypsin–0.02% EDTA after reaching 70–80% confluence. Single cell suspensions were prepared and adjusted to a density of 2 × 10^5 cell/mL^−1 (HepG2), 1 × 10^5 cell/mL^−1 (Caco-2) and 5 × 10^4 cell/mL^−1 (Balb/c 3T3). The cell suspension was transferred to 96-well plates (100 µL/well) and incubated for 24 h before the exposure to the studied compounds. Stock solutions of ligands and metal complexes were prepared in sterile water and diluted with culture medium to obtain a concentration range from 0.1 to 10 µM. The final concentration of sterile water was 0.1% in the medium. […] As a negative control, cultured cells were grown in the absence of studied compounds. Each concentration was tested in six replicates in three independent experiments. Cytotoxicity was assessed after 72 h of exposure of the cells to compounds. The medium was not changed during the incubation time.
# (§2) The integrity of the plasma membrane was assessed through the test of lactate dehydrogenase (LDH) release, which was monitored using the commercially available Cytotoxicity Detection Kit (LDH) (Roche Diagnostics, Warsaw, Poland). […] The absorbance was measured at 492 nm in a microplate reader Synergy HTX multi-mode reader (BioTek® Instruments Inc., Winooski, VT, USA) using a blank as a reference. […]
# [2] = test system: Balb/c 3T3 cells; assay: MTT assay (mitochondrial activity), 72 h exposure; assay type: cell-based, murine; details: Balb/c 3T3, MTT, mean ± SD, n = 3
# Procedure: as §1
# The metabolic activity of living cells was assessed by the measurement of the activity of dehydrogenases. […] The plate was shaken for 15 min at room temperature and transferred to a microplate reader Synergy HTX multi-mode reader (BioTek® Instruments Inc., Winooski, VT, USA) to measure the absorbance at 570 nm, using a blank as a reference. Cytotoxicity was expressed as a percentage of the negative control. […]
# [3] = test system: Balb/c 3T3 cells; assay: NRU assay (lysosomal activity), 72 h exposure; assay type: cell-based, murine; details: Balb/c 3T3, NRU, mean ± SD, n = 3
# Procedure: as §1
# This method is based on staining living cells with neutral red, which readily diffuses through the plasma membrane and accumulates in lysosomes. […] After 10 min of shaking, the absorbance of the dissolved NR was measured using a Synergy HTX multi-mode reader (BioTek® Instruments Inc., Winooski, VT, USA) at 540 nm using a blank as a reference. Cytotoxicity was expressed as a percentage of the negative control. […]
# [4] = test system: Balb/c 3T3 cells; assay: TPC assay (total protein content), 72 h exposure; assay type: cell-based, murine; details: Balb/c 3T3, TPC, mean ± SD, n = 3
# Procedure: as §1
# This assay is based upon staining the total cellular protein (proliferation). […] The absorbance was measured at 595 nm in a microplate reader Synergy HTX multi-mode reader (BioTek® Instruments Inc., Winooski, VT, USA) using a blank as a reference. Cytotoxicity was expressed as a percentage of the negative control. […]
# [5] = test system: Balb/c 3T3 cells; assay: LDH leakage assay (membrane integrity), 72 h exposure; assay type: cell-based, murine; details: Balb/c 3T3, LDH, mean ± SD, n = 3
# Procedure: as §1, §2
smiles,measurement,setting,value
"N.N.[Cl][Pt][Cl] [Cisplatin, cisplatin]",pIC50,[1],> 7.00
same,pIC50,[2],< 5.00
same,pIC50,[3],< 5.00
same,pIC50,[4],< 5.00
same,pIC50,[5],< 5.00
